Reference: patent US20220226319A1, “TALTIRELIN USE” (EOLAS RESEARCH LIMITED, priority 2019, published 2022)
Entries after “also recorded” stand apart in the source; their conditions may differ.

How the values were obtained:
Type in all cases: cell-based
[1] = test system: FOXO1 gene expression in fibroblasts; assay: FOXO1 gene expression in fibroblasts; settings: older cells (passage 20), P<0.01, FIG. 1
From the text: (§1) Experiments have shown that taltirelin modulates the gene expression in fibroblasts of a variety of genes involved in processes underlying ageing.
(§2) FIG. 1 illustrates the increased expression of FOXO1 and FOXO3 genes that occurs in fibroblasts by administration of taltirelin. From the results, it can be seen that the administration of taltirelin in older cells (passage 20) led to a large increase in the expression of FOXO1 (>5×) and FOXO3 (>1.5×) compared to untreated controls. The results were statistically significant with P<0.01.

[2] = test system: FOXO3 gene expression in fibroblasts; assay: FOXO3 gene expression in fibroblasts; settings: older cells (passage 20), P<0.01, FIG. 1
From the text: as §1, §2

[3] = test system: SIRT1 gene expression in fibroblasts; assay: SIRT1 gene expression in fibroblasts; settings: older cells (passage 20), FIG. 2
From the text: (§3) FIG. 2 illustrates the increased expression of EFNB1, NFE2L2, SERPINE1 and SIRT1 genes in fibroblasts that occurs by administration of taltirelin.

[4] = test system: EFNB1 gene expression in fibroblasts; assay: EFNB1 gene expression in fibroblasts; settings: older cells (passage 20), FIG. 2
From the text: as §3

[5] = test system: SERPINE1 gene expression in fibroblasts; assay: SERPINE1 gene expression in fibroblasts; settings: older cells (passage 20), FIG. 2
From the text: as §3

[6] = test system: NFE2L2 gene expression in fibroblasts; assay: NFE2L2 gene expression in fibroblasts; settings: older cells (passage 20), FIG. 2
From the text: as §3

CN1C(=O)C[C@@H](C(=O)N[C@@H](Cc2cnc[nH]2)C(=O)N2CCC[C@H]2C(N)=O)NC1=O [taltirelin, N-[[(4S)-Hexahydro-1-methyl-2,6-dioxo-4-pyrimidinyl]carbonyl]-L-histidyl-L-prolinamide]
increase in the expression of FOXO1 compared to untreated controls [1]: > 5 × | increase in the expression of FOXO3 compared to untreated controls [2]: > 1.5 × | expression of SIRT1 gene compared to untreated controls [3]: statistically significant (P<0.01) increase; also recorded: increased significantly | expression of EFNB1 gene compared to untreated controls [4]: statistically significant (P<0.01) increase; also recorded: significantly increased | expression of SERPINE1 gene compared to untreated controls [5]: statistically significant (P<0.01) decrease; also recorded: significantly inhibited | expression of NFE2L2 gene compared to untreated controls [6]: statistically significant (P<0.01) increase; also recorded: significantly increased
